In assay [1] the target is T1, human FGFR3 V555M enzyme (cytoplasmic domain carrying V555M mutation) (Homo sapiens, UniProt P22607, V555M).
T1 construct: cytoplasmic domain carrying V555M mutation, from Carna Biosciences; purchased Carna Biosciences
Briefly: FGFR3 V555M mobility shift assay (enzymatic assay, Caliper). The assay is classed as biochemical. Particulars: 30 μM ATP, 45 minutes at 30° C. As for the experimental part:
FGFR3 V555M Mobility Shift Assay (Enzymatic Assay)
In a final reaction volume of 25 μL, 0.04 ng/μL human FGFR3 V555M enzyme (cytoplasmic domain carrying V555M mutation, from Carna Biosciences) was incubated with 30 μM ATP, 1 μM FL-peptide 30 substrate and 250 nL of testing compound (1% DMSO final) in assay buffer (100 mM HEPES pH 7.4, 10 mM MgCl2, 0.003% Brij35, 1 mM DTT). After incubation for 45 minutes at 30° C. the reaction was stopped with 10 μL of 0.5M EDTA pH 8.0, and then L of reaction mixture was transferred to reading plate and measured on Caliper EZ reader II.

In assay [2] the test system is NIH/3T3 cells transfected with control vector (MOCK). Briefly: NIH/3T3 mock cell proliferation assay (CTG, counter assay). The format is cell-based. The following applies: Mus musculus, NIH3T3; 72-hr incubation, CellTiter Glo; counter assay for general toxicity. As for the experimental part:
NIH/3T3 Mock Cell Proliferation Assay
(§1) In day 1, 90 μL of cell suspension (NIH/3T3 cells transfected with the same control vector as in the above two proliferation assays) (total 30,000 cells per well in growth medium (DMEM containing 1% Glutamax, 10% FBS and 1% Pen/Strep)) was seeded in a 96-well plate and then incubated overnight at 37° C. and 5% CO2. In day 2, 10 μL of growth medium containing 10-fold stock solution of testing compound was added into cell cultures (9 dose points with 3× serial dilution, starting with 30 μM, 0.3% DMSO final). After 72-hr incubation at 37° C. and 5% CO2, in day 5 a volume of 50 μL CellTiter Glo (CTG) reagent was added into cell-containing 96-well plate and the plate was incubated at room temperature for 10 minutes before RLUs (relative light unit) were measured on a microplate reader with luminescence detection module. The RLU value was normalized to survival % and concentration-response curve was plotted using Prism to calculate IC50 (M), pIC50 (−log IC50) and HillSlope value.
On the technique in general: In ATP-based viability assays light output follows the ATP content of the culture.

Assay [3] addresses T2, human FGFR3 wild type enzyme (cytoplasmic domain) (Homo sapiens, UniProt P22607).
T2 construct: human FGFR3 wild type enzyme (cytoplasmic domain, from Cama Biosciences); purchased Carna Biosciences
Briefly: FGFR3 wild type mobility shift assay (enzymatic assay, Caliper). The assay is classed as biochemical. The following applies: 75 μM ATP, 50 minutes at 30° C. How it is done:
FGFR3 Wild Type Mobility Shift Assay (Enzymatic Assay)
In a final reaction volume of 25 μL, 0.04 ng/μL human FGFR3 wild type enzyme (cytoplasmic domain, from Cama Biosciences) was incubated with 75 μM ATP, 1 μM FL-peptide 30 substrate and 250 nL of testing compound (1% DMSO final) in assay buffer (100 mM HEPES pH 7.4, 10 mM MgCl2, 0.003% Brij35, 1 mM DTT). After incubation for 50 minutes at 30° C. the reaction was stopped with 10 μL of 0.5M EDTA pH 8.0, and then L of reaction mixture was transferred to reading plate and measured on Caliper EZ reader II.

Assay [4] has as its target T3, NIH/3T3 cells overexpressing FGFR3 WT-TACC3 fusion protein (Homo sapiens, UniProt P22607).
T3 construct: NIH/3T3 FGFR3 WT-TACC3 CTG (IC50); other: 72-hr incubation, CellTiter Glo; fused on or other part: C-terminal coiled-coil part of TACC3 (part of the key, as a fusion known from patients); Q9Y6A5 (Transforming acidic coiled-coil-containing protein 3)
Briefly: NIH/3T3 FGFR3 WT-TACC3 cell proliferation assay (CTG). The assay is classed as cell-based. Particulars: 72-hr incubation, CellTiter Glo; read-out: NIH/3T3 FGFR3 WT-TACC3 CTG (IC50). How it is done:
NIH/3T3 FGFR3 WT-TACC3 Cell Proliferation Assay
as §1, with “cells overexpressing FGFR3 WT-TACC3 fusion protein)” for “cells transfected with the same control vector as in the above two proliferation assays)”, “with 4×” for “with 3×”, “with 10” for “with 30”, “μM, 0.1%” for “μM, 0.3%”

By IC50 is commonly meant the point on the concentration scale where inhibition reaches its midpoint.

T1 sequence (P22607 397-806 V555M limits assumed): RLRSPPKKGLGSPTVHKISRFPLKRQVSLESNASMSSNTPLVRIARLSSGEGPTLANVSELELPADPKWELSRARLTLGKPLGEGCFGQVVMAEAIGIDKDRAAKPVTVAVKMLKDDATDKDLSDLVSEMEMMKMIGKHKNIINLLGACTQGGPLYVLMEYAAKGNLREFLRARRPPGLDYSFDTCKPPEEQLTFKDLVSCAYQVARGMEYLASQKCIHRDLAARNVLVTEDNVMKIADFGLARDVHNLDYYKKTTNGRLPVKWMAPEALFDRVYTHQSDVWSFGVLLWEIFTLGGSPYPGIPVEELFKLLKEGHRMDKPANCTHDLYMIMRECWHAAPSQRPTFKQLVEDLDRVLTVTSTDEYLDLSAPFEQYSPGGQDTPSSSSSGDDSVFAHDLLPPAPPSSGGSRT
T2 sequence (P22607 397-806 limits assumed): as the sequence (P22607 397-806 V555M limits assumed) above, with M159V counted along it
T3 sequence (P22607 whole entry, change not shown, the tested form may be a part): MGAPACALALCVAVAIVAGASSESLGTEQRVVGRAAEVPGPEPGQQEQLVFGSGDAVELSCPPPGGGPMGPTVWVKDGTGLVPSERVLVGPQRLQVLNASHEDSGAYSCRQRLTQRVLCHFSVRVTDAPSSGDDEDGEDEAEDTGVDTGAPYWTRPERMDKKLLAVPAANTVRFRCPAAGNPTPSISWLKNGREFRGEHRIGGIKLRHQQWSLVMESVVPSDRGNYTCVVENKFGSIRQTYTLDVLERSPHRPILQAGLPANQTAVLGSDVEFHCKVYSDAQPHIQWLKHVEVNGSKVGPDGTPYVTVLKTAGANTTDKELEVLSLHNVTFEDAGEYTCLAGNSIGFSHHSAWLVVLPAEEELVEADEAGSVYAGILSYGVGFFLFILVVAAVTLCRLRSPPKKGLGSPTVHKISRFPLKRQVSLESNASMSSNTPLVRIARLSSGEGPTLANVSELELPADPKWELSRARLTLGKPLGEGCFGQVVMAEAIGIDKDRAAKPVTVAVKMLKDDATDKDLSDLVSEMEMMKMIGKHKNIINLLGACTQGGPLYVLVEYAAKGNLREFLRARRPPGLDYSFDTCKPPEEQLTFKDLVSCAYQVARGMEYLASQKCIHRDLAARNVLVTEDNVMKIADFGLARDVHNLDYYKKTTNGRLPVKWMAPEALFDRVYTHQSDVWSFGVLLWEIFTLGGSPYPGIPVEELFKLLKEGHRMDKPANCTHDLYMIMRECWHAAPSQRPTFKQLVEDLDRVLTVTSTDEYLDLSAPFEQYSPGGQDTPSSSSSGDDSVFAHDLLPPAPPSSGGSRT

In the case of `CCC(Nc1c(-c2nc3cc(OC)c(OC)cc3[nH]2)c(=O)[nH]c2cn(C)nc12)c1ncccn1` (single isomer, unassigned) [Compound 42, (S*)-6-(5,6-dimethoxy-1H-benzo[d]imidazol-2-yl)-2-methyl-7-((1-(pyrimidin-2-yl)-propyl)amino)-2H-pyrazolo[4,3-b]pyridin-5 (4H)-one], the 50% inhibitory concentration (IC50) in assay [1] came to 0.407 nM; in assay [2], 591 nM; in assay [3] it was 2.16 nM. Also, in assay [4], the GI50 was found to be 12.5 nM.
As for `CCC(Nc1c(-c2nc3cc(OC)c(OC)cc3[nH]2)c(=O)[nH]c2cn(CC)nc12)c1ncccn1` (single isomer, unassigned) [Compound 44, (S*)-6-(5,6-dimethoxy-1H-benzo[d]imidazol-2-yl)-2-ethyl-7-((1-(pyrimidin-2-yl)propyl)-amino)-2H-pyrazolo[4,3-b]pyridin-5 (4H)-one], the IC50 in assay [1] came out at 1.17 nM; in assay [2], 2300 nM; in assay [3], 3.1 nM.
Taken in the same sequence, the figures for `COc1cc2nc(-c3c(NC(c4ncccn4)C4CC4)c4nn(C)cc4[nH]c3=O)[nH]c2cc1OC` (single isomer, unassigned) [Compound 46, (S*)-7-((cyclopropyl(pyrimidin-2-yl)methyl)amino)-6-(5,6-dimethoxy-1H-benzo[d]-imidazol-2-yl)-2-methyl-2H-pyrazolo[4,3-b]pyridin-5 (4H)-one] were 0.566 nM, 682 nM and 2.44 nM.
Turning to `COc1cc(F)c2nc(-c3c(N[C@@H](C)c4ncccn4)c4nn(C)cc4[nH]c3=O)[nH]c2c1` [Compound 2, (S)-6-(4-fluoro-6-methoxy-1H-benzo[d]imidazol-2-yl)-2-methyl-7-((1-(pyrimidin-2-yl)-ethyl)amino)-2H-pyrazolo[4,3-b]pyridin-5 (4H)-one], the figures for the IC50 in assay [1], in assay [2] and in assay [3] were 0.791 nM, 2380 nM and 2.88 nM, respectively.
For `COc1cnc2nc(-c3c(N[C@@H](C)c4ncccn4)c4nn(C)cc4[nH]c3=O)[nH]c2c1` [Compound 3, (S)-6-(6-methoxy-1H-imidazo[4,5-b]pyridin-2-yl)-2-methyl-7-((1-(pyrimidin-2-yl)-ethyl)amino)-2H-pyrazolo[4,3-b]pyridin-5 (4H)-one], in that order: 0.361 nM, 776 nM and 1.67 nM.
For `CCn1cc2[nH]c(=O)c(-c3nc4ccc(OC)cc4[nH]3)c(N[C@@H](C)c3ncccn3)c2n1` [Compound 4, (S)-2-ethyl-6-(6-methoxy-1H-benzo[d]imidazol-2-yl)-7-((1-(pyrimidin-2-yl)ethyl)amino)-2H-pyrazolo[4,3-b]pyridin-5 (4H)-one], in that order: 0.998 nM, 735 nM and 3.36 nM.
Taken in the same sequence, the figures for `CCn1cc2[nH]c(=O)c(-c3nc4cc(OC)c(OC)cc4[nH]3)c(N[C@@H](C)c3ncccn3)c2n1` [Compound 6, (S)-6-(5,6-Dimethoxy-1H-benzo[d]imidazol-2-yl)-2-ethyl-7-((1-(pyrimidin-2-yl)ethyl)-amino)-2H-pyrazolo[4,3-b]pyridin-5 (4H)-one] were 0.673 nM, 800 nM and 1.83 nM.
Turning to `CCOc1cc2[nH]c(-c3c(N[C@@H](C)c4ncccn4)c4nn(CC)cc4[nH]c3=O)nc2cc1OC` [Compound 8, (S)-6-(6-ethoxy-5-methoxy-1H-benzo[d]imidazol-2-yl)-2-ethyl-7-((1-(pyrimidin-2-yl)-ethyl)amino)-2H-pyrazolo[4,3-b]pyridin-5 (4H)-one], the 50% inhibitory concentration (IC50) is 0.376 nM in assay [1], 766 nM in assay [2] and 1.15 nM in assay [3].
Regarding `CC[C@H](Nc1c(-c2nc3cnc(N(C)C)cc3[nH]2)c(=O)[nH]c2cn(C)nc12)c1ncccn1` [Compound 22, (S)-6-(6-(dimethylamino)-1H-imidazo[4,5-c]pyridin-2-yl)-2-methyl-7-((1-(pyrimidin-2-yl)propyl)amino)-2H-pyrazolo[4,3-b]pyridin-5 (4H)-one], the IC50 came to 0.743 nM in assay [1], 1250 nM in assay [2] and 3.62 nM in assay [3].
For `COc1cc(OC)c2nc(-c3c(N[C@@H](C)c4ncccn4)c4nn(C)cc4[nH]c3=O)[nH]c2c1` [Compound 29, (S)-6-(4,6-Dimethoxy-1H-benzo[d]imidazol-2-yl)-2-methyl-7-((1-(pyrimidin-2-yl)ethyl)-amino)-2H-pyrazolo[4,3-b]pyridin-5 (4H)-one], in that order: 0.517 nM, 809 nM and 1.89 nM.
As for `COc1cc2[nH]c(-c3c(N[C@@H](C)c4ncccn4)c4nn(C)cc4[nH]c3=O)nc2cn1` [Compound 30, (S)-6-(6-methoxy-1H-imidazo[4,5-c]pyridin-2-yl)-2-methyl-7-((1-(pyrimidin-2-yl)ethyl)-amino)-2H-pyrazolo[4,3-b]pyridin-5 (4H)-one], the figures for the half-inhibitory concentration (IC50) in assay [1], in assay [2] and in assay [3] were 0.414 nM, 1200 nM and 1.13 nM, respectively.
On to `CCn1cc2[nH]c(=O)c(-c3nc4c(OC)cccc4[nH]3)c(N[C@@H](C)c3ncccn3)c2n1` [Compound 32, (S)-2-ethyl-6-(4-methoxy-1H-benzo[d]imidazol-2-yl)-7-((1-(pyrimidin-2-yl)ethyl)amino)-2H-pyrazolo[4,3-b]pyridin-5 (4H)-one], for which the 50% inhibitory concentration (IC50) was 2.03 nM in assay [1], 1490 nM in assay [2] and 5.45 nM in assay [3].
For the compound `CCn1cc2[nH]c(=O)c(-c3nc4c(F)c(OC)c(OC)cc4[nH]3)c(N[C@@H](C)c3ncccn3)c2n1` [Compound 41, (S)-2-ethyl-6-(4-fluoro-5,6-dimethoxy-1H-benzo[d]imidazol-2-yl)-7-((1-(pyrimidin-2-yl)-ethyl)amino)-2H-pyrazolo[4,3-b]pyridin-5 (4H)-one], the half-inhibitory concentration (IC50) in assay [1] stood at 1.11 nM; in assay [2], 2280 nM; in assay [3], 3.8 nM.
For `CCOc1ccc2nc(-c3c(N[C@@H](C)c4ncccn4)c4nn(CC)cc4[nH]c3=O)[nH]c2c1` [Compound 50, (S)-6-(6-ethoxy-1H-benzo[d]imidazol-2-yl)-2-ethyl-7-((1-(pyrimidin-2-yl)ethyl)amino)-2,4-dihydro-5H-pyrazolo[4,3-b]pyridin-5-one], the IC50 in assay [1] amounted to 0.576 nM; in assay [2], 1100 nM; in assay [3], 2.96 nM.
Taken in the same sequence, the figures for `CCOc1cc2nc(-c3c(N[C@@H](C)c4ncccn4)c4nn(C)cc4[nH]c3=O)[nH]c2cc1OCC` [Compound 53, (S)-6-(5,6-diethoxy-1H-benzo[d]imidazol-2-yl)-2-methyl-7-((1-(pyrimidin-2-yl)ethyl)-amino)-2,4-dihydro-5H-pyrazolo[4,3-b]pyridin-5-one] were 0.298 nM, 535 nM and 0.554 nM.
For the compound `CCn1cc2[nH]c(=O)c(-c3nc4ccc(OCCOC)cc4[nH]3)c(N[C@@H](C)c3ncccn3)c2n1` [Compound 54, (S)-2-ethyl-6-(6-(2-methoxyethoxy)-1H-benzo[d]imidazol-2-yl)-7-((1-(pyrimidin-2-yl)-ethyl)amino)-2H-pyrazolo[4,3-b]pyridin-5 (4H)-one], the IC50 in assay [1] stood at 0.562 nM; in assay [2], 689 nM; in assay [3], 1.64 nM.

Source of the values: patent US11384099B2, “Pyrazolopyridinone compounds” (Janssen Pharmaceutica NV, priority 2017, dated 2022).
